Tests used:
Test in all cases: MIC by agar dilution method
Format in all cases: cell-based
Design in all cases: unit not given here
Bacillus subtilis = system: Bacillus subtilis
Description: (§1) The following Table 1 show minimum inhibitory concentrations (MIC) against Gram-positive and Gram-negative bacteria of representative compounds of the invention. MIC was measured by agar dilution method.

Enterobacter cloacae = system: Enterobacter cloacae
Description: as §1

Escherichia coli NIHJ = system: Escherichia coli NIHJ
Description: as §1

Klebsiella pneumoniae = system: Klebsiella pneumoniae
Description: as §1

Proteus mirabilis = system: Proteus mirabilis
Description: as §1

[1] = system: Pseudomonas aerugenosa GN
Description: as §1

Pseudomonas aerugenosa = system: Pseudomonas aerugenosa
Description: as §1

Salmonella typhi = system: Salmonella typhi
Description: as §1

Serratia marcescens = system: Serratia marcescens
Description: as §1

Staph. aureus Smith = system: Staph. aureus Smith
Description: as §1

Staph. epidermidis = system: Staph. epidermidis
Description: as §1

## Nc1nc(/C(=N/OCc2cc(Cl)c(O)c(O)c2Cl)C(=O)NC2C(=O)N3C(C(=O)[O-])=C(CSc4cnns4)CS[C@H]23)cs1.[Na+] (stereo partly shown) [Example 1, Sodium 7-[2-(2-aminothiazol-4-yl)-2(Z)-(2,5-dichloro-3,4-dihydroxybenzyloxyimino)acetamido]-3-(1,2,3-thiadiazol-5-yl)thiomethyl-3-cephem-4-carboxylate]
Bacillus subtilis
  Minimum Inhibitor Concentration (MIC): 0.78
Enterobacter cloacae
  Minimum Inhibitor Concentration (MIC): 0.20
Escherichia coli NIHJ
  Minimum Inhibitor Concentration (MIC): 0.05
Klebsiella pneumoniae
  Minimum Inhibitor Concentration (MIC): 0.05
Proteus mirabilis
  Minimum Inhibitor Concentration (MIC): 0.05
[1]
  Minimum Inhibitor Concentration (MIC): 0.39
Pseudomonas aerugenosa
  Minimum Inhibitor Concentration (MIC): 0.39
Salmonella typhi
  Minimum Inhibitor Concentration (MIC): 0.10
Serratia marcescens
  Minimum Inhibitor Concentration (MIC): 0.10
Staph. aureus Smith
  Minimum Inhibitor Concentration (MIC): 0.10
Staph. epidermidis
  Minimum Inhibitor Concentration (MIC): 0.20

## Nc1nc(/C(=N/OCc2ccc(O)c(O)c2Cl)C(=O)NC2C(=O)N3C(C(=O)[O-])=C(CSc4cnns4)CS[C@H]23)cs1.[Na+] (stereo partly shown) [Example 2, Sodium 7-[2-(2-aminothiazol-4-yl)-2(Z)-(2-chloro-3,4-dihydroxybenzyloxyimino)acetamido]-3-(1,2,3-thiadiazol-5-yl)thiomethyl-3-cephem-4-carboxylate]
Bacillus subtilis
  Minimum Inhibitor Concentration (MIC): 0.20
Enterobacter cloacae
  Minimum Inhibitor Concentration (MIC): 0.78
Escherichia coli NIHJ
  Minimum Inhibitor Concentration (MIC): 0.78
Klebsiella pneumoniae
  Minimum Inhibitor Concentration (MIC): 0.20
Proteus mirabilis
  Minimum Inhibitor Concentration (MIC): 0.05
[1]
  Minimum Inhibitor Concentration (MIC): 6.25
Pseudomonas aerugenosa
  Minimum Inhibitor Concentration (MIC): 0.78
Salmonella typhi
  Minimum Inhibitor Concentration (MIC): 0.20
Serratia marcescens
  Minimum Inhibitor Concentration (MIC): 0.78
Staph. aureus Smith
  Minimum Inhibitor Concentration (MIC): 0.20
Staph. epidermidis
  Minimum Inhibitor Concentration (MIC): 0.20

## C[n+]1ccc(SCC2=C(C(=O)[O-])N3C(=O)C(NC(=O)/C(=N\OCc4cc(Cl)c(O)c(O)c4Cl)c4csc(N)n4)C3SC2)cc1 (stereo not shown) [Example 3, 7-[2-(2-aminothiazol-4-yl)-2(Z)-(2,5-dichloro-3,4-di hydroxybenzyloxyimino)acetamido]-3-(N-methylpyridin-4-yl)thiomethyl-3-cephem-4-carboxylic acid]
Bacillus subtilis
  Minimum Inhibitor Concentration (MIC): 0.78
Enterobacter cloacae
  Minimum Inhibitor Concentration (MIC): 0.20
Escherichia coli NIHJ
  Minimum Inhibitor Concentration (MIC): 0.05
Klebsiella pneumoniae
  Minimum Inhibitor Concentration (MIC): 0.05
Proteus mirabilis
  Minimum Inhibitor Concentration (MIC): 0.025
[1]
  Minimum Inhibitor Concentration (MIC): 0.39
Pseudomonas aerugenosa
  Minimum Inhibitor Concentration (MIC): 0.39
Salmonella typhi
  Minimum Inhibitor Concentration (MIC): 0.39
Serratia marcescens
  Minimum Inhibitor Concentration (MIC): 0.05
Staph. aureus Smith
  Minimum Inhibitor Concentration (MIC): 0.39
Staph. epidermidis
  Minimum Inhibitor Concentration (MIC): 0.39

## Nc1nc(/C(=N/OCc2ccc(O)c(O)c2)C(=O)NC2C(=O)N3C(C(=O)[O-])=C(CSc4cnns4)CS[C@H]23)cs1.[Na+] (stereo partly shown) [Example 5, Sodium 7-[2-(2-aminothiazol-4-yl)-2(Z)-(3,4-dihydroxybenzyloxyimino)acetamido]-3-(1,2,3-thiadiazol-5-yl)thiomethyl-3-cephem-4-carboxylate]
Bacillus subtilis
  Minimum Inhibitor Concentration (MIC): 0.39
Enterobacter cloacae
  Minimum Inhibitor Concentration (MIC): 0.78
Escherichia coli NIHJ
  Minimum Inhibitor Concentration (MIC): 0.05
Klebsiella pneumoniae
  Minimum Inhibitor Concentration (MIC): 0.05
Proteus mirabilis
  Minimum Inhibitor Concentration (MIC): 0.10
[1]
  Minimum Inhibitor Concentration (MIC): 0.78
Pseudomonas aerugenosa
  Minimum Inhibitor Concentration (MIC): 0.39
Salmonella typhi
  Minimum Inhibitor Concentration (MIC): 0.10
Serratia marcescens
  Minimum Inhibitor Concentration (MIC): 0.10
Staph. aureus Smith
  Minimum Inhibitor Concentration (MIC): 0.10
Staph. epidermidis
  Minimum Inhibitor Concentration (MIC): 0.78

## Nc1nc(/C(=N/OCc2cc(O)c(O)c(Cl)c2)C(=O)NC2C(=O)N3C(C(=O)O)=C(CSc4cnns4)CSC23)cs1 (stereo not shown) [Example 7]
Bacillus subtilis
  Minimum Inhibitor Concentration (MIC): 1.56
Enterobacter cloacae
  Minimum Inhibitor Concentration (MIC): 6.25
Escherichia coli NIHJ
  Minimum Inhibitor Concentration (MIC): < 0.05
Klebsiella pneumoniae
  Minimum Inhibitor Concentration (MIC): < 0.05
Proteus mirabilis
  Minimum Inhibitor Concentration (MIC): < 0.05
[1]
  Minimum Inhibitor Concentration (MIC): 1.56
Pseudomonas aerugenosa
  Minimum Inhibitor Concentration (MIC): 0.78
Salmonella typhi
  Minimum Inhibitor Concentration (MIC): < 0.05
Serratia marcescens
  Minimum Inhibitor Concentration (MIC): < 0.05
Staph. aureus Smith
  Minimum Inhibitor Concentration (MIC): 0.01
Staph. epidermidis
  Minimum Inhibitor Concentration (MIC): 0.78

## Nc1nc(/C(=N/OCc2cc(F)c(O)c(O)c2F)C(=O)NC2C(=O)N3C(C(=O)[O-])=C(CSc4cnns4)CS[C@H]23)cs1.[Na+] (stereo partly shown) [Example 8, Sodium 7-[2-(2-aminothiazol-4-yl)-2(Z)-(2,5-difluoro-3,4-dihydroxybenzyloxyimino)acetamido]-3-(1,2,3-thiadiazol-5-yl)thiomethyl-3-cephem-4-carboxylate]
Bacillus subtilis
  Minimum Inhibitor Concentration (MIC): 1.56
Enterobacter cloacae
  Minimum Inhibitor Concentration (MIC): 3.13
Escherichia coli NIHJ
  Minimum Inhibitor Concentration (MIC): < 0.05
Klebsiella pneumoniae
  Minimum Inhibitor Concentration (MIC): < 0.05
Proteus mirabilis
  Minimum Inhibitor Concentration (MIC): < 0.05
[1]
  Minimum Inhibitor Concentration (MIC): 0.78
Pseudomonas aerugenosa
  Minimum Inhibitor Concentration (MIC): 0.39
Salmonella typhi
  Minimum Inhibitor Concentration (MIC): < 0.05
Serratia marcescens
  Minimum Inhibitor Concentration (MIC): < 0.05
Staph. aureus Smith
  Minimum Inhibitor Concentration (MIC): 0.10
Staph. epidermidis
  Minimum Inhibitor Concentration (MIC): 0.20

## Nc1nc(/C(=N/OCc2cc(O)c(O)c(F)c2)C(=O)NC2C(=O)N3C(C(=O)O)=C(CSc4cnns4)CSC23)cs1 (stereo not shown) [Example 9, Sodium 7-[2-(2-aminothiazol-4-yl)-2(Z)-(5-fluoro-3,4-dihydroxybenzyloxyimino)acetamido]-3-(l,2,3-thiadiazol-5-yl)thiomethyl-3-cephem-4-carboxylate]
Bacillus subtilis
  Minimum Inhibitor Concentration (MIC): 1.56
Enterobacter cloacae
  Minimum Inhibitor Concentration (MIC): 6.25
Escherichia coli NIHJ
  Minimum Inhibitor Concentration (MIC): < 0.05
Klebsiella pneumoniae
  Minimum Inhibitor Concentration (MIC): < 0.05
Proteus mirabilis
  Minimum Inhibitor Concentration (MIC): < 0.05
[1]
  Minimum Inhibitor Concentration (MIC): 1.56
Pseudomonas aerugenosa
  Minimum Inhibitor Concentration (MIC): 0.78
Salmonella typhi
  Minimum Inhibitor Concentration (MIC): < 0.05
Serratia marcescens
  Minimum Inhibitor Concentration (MIC): < 0.05
Staph. aureus Smith
  Minimum Inhibitor Concentration (MIC): 0.10
Staph. epidermidis
  Minimum Inhibitor Concentration (MIC): 0.78

## Sodium 7-[2-(2-aminothiazol-4-yl)-2(Z)-(3,4-dihydroxybenzyloxyimino)acetamido]-3-(5-methyl-2-tetrazol-2-yl)thiomethyl-3-cephem-4-carboxylate [Example 6]
Bacillus subtilis
  Minimum Inhibitor Concentration (MIC): 0.39
Enterobacter cloacae
  Minimum Inhibitor Concentration (MIC): 1.56
Escherichia coli NIHJ
  Minimum Inhibitor Concentration (MIC): 0.05
Klebsiella pneumoniae
  Minimum Inhibitor Concentration (MIC): 0.10
Proteus mirabilis
  Minimum Inhibitor Concentration (MIC): 0.10
[1]
  Minimum Inhibitor Concentration (MIC): 1.56
Pseudomonas aerugenosa
  Minimum Inhibitor Concentration (MIC): 0.78
Salmonella typhi
  Minimum Inhibitor Concentration (MIC): 0.20
Serratia marcescens
  Minimum Inhibitor Concentration (MIC): 0.20
Staph. aureus Smith
  Minimum Inhibitor Concentration (MIC): 0.10
Staph. epidermidis
  Minimum Inhibitor Concentration (MIC): 1.56

Source: EP0400805A1, “Cephalosporin compounds and their use” (Ishimaru, Toshiyasu, priority 1989, dated 1990)
